Common to all, as to assay type: functional, cell-based
One test has as its system A549. The test can be described thus: Antiproliferative activity against human A549 cells assessed as cell viability measured after 48 hrs incubation by MTT assay. The note with it: A549, 48 h.
The next test has as its system HepG2. The test is described as follows: Antiproliferative activity against human HepG2 cells assessed as cell viability measured after 48 hrs incubation by MTT assay. The note with it: HepG2, 48 h.
The next test relates to MCF7. The test can be described thus: Antiproliferative activity against human MCF7 cells assessed as cell viability measured after 48 hrs incubation by MTT assay. The note with it: MCF7, 48 h. Background: Tetrazolium assays rely on reduction of a dye to a coloured formazan, in cell work by metabolically active cells.

A word on the IC50: it is the concentration that inhibits the measured activity by half.

Turning to `Cc1ccc(/C=C2\SC(=O)N(CC(=O)N3CCN(C(=O)O[C@H]4CC[C@]5(C)[C@H]6CC[C@]7(C)[C@@H]([C@H](C)/C=C/[C@H](C)C(C)C)CC[C@H]7[C@@]67C=C[C@]5(C4)OO7)CC3)C2=O)cc1`, the IC50 with A549 was 7.01 µM; in the test with HepG2, 10.4 µM; in the test on MCF7, 9.45 µM.

With `CC(C)[C@@H](C)/C=C/[C@@H](C)[C@H]1CC[C@@H]2[C@]1(C)CC[C@H]1[C@]23C=C[C@]2(C[C@@H](OC(=O)N4CCN(C(=O)CN5C(=O)S/C(=C\c6ccoc6)C5=O)CC4)CC[C@]12C)OO3`, the half-inhibitory concentration (IC50) amounted to 10.4 µM in the test on A549, 19.8 µM with HepG2 and 16.7 µM with MCF7.

`COc1ccc(/C=C2/SC(=O)N(CC(=O)O[C@H]3CC[C@]4(C)[C@H]5CC[C@]6(C)[C@@H]([C@H](C)/C=C/[C@H](C)C(C)C)CC[C@H]6[C@@]56C=C[C@]4(C3)OO6)C2=O)cc1OC`: the IC50 in the test with A549 turned out to be 15.2 µM; in the test with HepG2, 18 µM; in the test on MCF7, 13.6 µM.

`CC(C)[C@@H](C)/C=C/[C@@H](C)[C@H]1CC[C@@H]2[C@]1(C)CC[C@H]1[C@]23C=C[C@]2(C[C@@H](OC(=O)CN4C(=O)S/C(=C/c5cccs5)C4=O)CC[C@]12C)OO3`: the half-maximal inhibitory concentration (IC50) was determined as 7.4 µM with A549, 17.3 µM in the test with HepG2 and 16.6 µM in the test on MCF7.

As for `CC(C)[C@@H](C)/C=C/[C@@H](C)[C@H]1CC[C@@H]2[C@]1(C)CC[C@H]1[C@]23C=C[C@]2(C[C@@H](OC(=O)N4CCN(C(=O)CN5C(=O)S/C(=C\c6ccc(C(C)(C)C)cc6)C5=O)CC4)CC[C@]12C)OO3`, the results for the IC50 with A549, with HepG2 and with MCF7 were 11.6 µM, 19.5 µM and 14.4 µM, respectively.

With `CC(C)[C@@H](C)/C=C/[C@@H](C)[C@H]1CC[C@@H]2[C@]1(C)CC[C@H]1[C@]23C=C[C@]2(C[C@@H](OC(=O)CN4C(=O)S/C(=C/C5CC5)C4=O)CC[C@]12C)OO3`, the IC50 with A549 was found to be 13 µM; in the test with HepG2, 13.1 µM; with MCF7, 9.35 µM.

As for `CC(C)[C@@H](C)/C=C/[C@@H](C)[C@H]1CC[C@@H]2[C@]1(C)CC[C@H]1[C@]23C=C[C@]2(C[C@@H](OC(=O)CN4C(=O)S/C(=C/c5ccccc5F)C4=O)CC[C@]12C)OO3`, the half-maximal inhibitory concentration (IC50) turned out to be 11.4 µM in the test on A549, 12.5 µM in the test with HepG2 and 14.4 µM in the test with MCF7.

As to `COc1ccc(/C=C2/SC(=O)N(CC(=O)O[C@H]3CC[C@]4(C)[C@H]5CC[C@]6(C)[C@@H]([C@H](C)/C=C/[C@H](C)C(C)C)CC[C@H]6[C@@]56C=C[C@]4(C3)OO6)C2=O)c(OC)c1OC`, the concentration for half-maximal inhibition (IC50) was found to be 9.1 µM with A549, 10.9 µM in the test on HepG2 and 9.66 µM in the test on MCF7.

As for `CC(C)[C@@H](C)/C=C/[C@@H](C)[C@H]1CC[C@@H]2[C@]1(C)CC[C@H]1[C@]23C=C[C@]2(C[C@@H](OC(=O)N4CCN(C(=O)CN5C(=O)S/C(=C\c6ccc(F)c(Cl)c6)C5=O)CC4)CC[C@]12C)OO3`, the concentration for half-maximal inhibition (IC50) was found to be 12.5 µM with A549, 13.7 µM in the test with HepG2 and 15.2 µM in the test with MCF7.

Consider `COc1ccc(/C=C2\SC(=O)N(CC(=O)N3CCN(C(=O)O[C@H]4CC[C@]5(C)[C@H]6CC[C@]7(C)[C@@H]([C@H](C)/C=C/[C@H](C)C(C)C)CC[C@H]7[C@@]67C=C[C@]5(C4)OO7)CC3)C2=O)c(OC)c1OC`, for which the IC50 amounted to 5.17 µM with A549, 9.75 µM in the test with HepG2 and 8.96 µM in the test with MCF7.

In the case of `COc1ccc(/C=C2\SC(=O)N(CC(=O)N3CCN(C(=O)O[C@H]4CC[C@]5(C)[C@H]6CC[C@]7(C)[C@@H]([C@H](C)/C=C/[C@H](C)C(C)C)CC[C@H]7[C@@]67C=C[C@]5(C4)OO7)CC3)C2=O)cc1OC`, the IC50 stood at 7.75 µM in the test on A549, 21.5 µM in the test with HepG2 and 13.6 µM with MCF7.

For `CC(C)[C@@H](C)/C=C/[C@@H](C)[C@H]1CC[C@@H]2[C@]1(C)CC[C@H]1[C@]23C=C[C@]2(C[C@@H](OC(=O)N4CCN(C(=O)CN5C(=O)S/C(=C\c6ccc(Br)cc6)C5=O)CC4)CC[C@]12C)OO3`, the half-maximal inhibitory concentration (IC50) in the test on A549 was found to be 5.74 µM; in the test with HepG2 it was 12.4 µM; in the test with MCF7, 10.4 µM.

On to `Cc1ccc(/C=C2/SC(=O)N(CC(=O)O[C@H]3CC[C@]4(C)[C@H]5CC[C@]6(C)[C@@H]([C@H](C)/C=C/[C@H](C)C(C)C)CC[C@H]6[C@@]56C=C[C@]4(C3)OO6)C2=O)cc1`, for which the IC50 in the test with A549 amounted to 14.2 µM; in the test with HepG2, 14.6 µM; in the test with MCF7, 11.5 µM.

On to `COc1cccc(/C=C2/SC(=O)N(CC(=O)O[C@H]3CC[C@]4(C)[C@H]5CC[C@]6(C)[C@@H]([C@H](C)/C=C/[C@H](C)C(C)C)CC[C@H]6[C@@]56C=C[C@]4(C3)OO6)C2=O)c1`, for which the values for the half-maximal inhibitory concentration (IC50) with A549, in the test on HepG2 and with MCF7 were 10.8 µM, 15.3 µM and 17 µM, respectively.

With `CC(C)[C@@H](C)/C=C/[C@@H](C)[C@H]1CC[C@@H]2[C@]1(C)CC[C@H]1[C@]23C=C[C@]2(C[C@@H](OC(=O)N4CCN(C(=O)CN5C(=O)S/C(=C\c6ccccc6)C5=O)CC4)CC[C@]12C)OO3`, the figures for the IC50 with A549, in the test with HepG2 and with MCF7 were 6.05 µM, 9.71 µM and 8.48 µM, respectively.

For `CC(C)[C@@H](C)/C=C/[C@@H](C)[C@H]1CC[C@@H]2[C@]1(C)CC[C@H]1[C@]23C=C[C@]2(C[C@@H](OC(=O)CN4C(=O)S/C(=C/c5ccc(F)c(Cl)c5)C4=O)CC[C@]12C)OO3`, the results for the IC50 in the test with A549, in the test on HepG2 and with MCF7 were 7.92 µM, 15.8 µM and 11.1 µM, respectively.

On to `CC(C)[C@@H](C)/C=C/[C@@H](C)[C@H]1CC[C@@H]2[C@]1(C)CC[C@H]1[C@]23C=C[C@]2(C[C@@H](OC(=O)N4CCN(C(=O)CN5C(=O)S/C(=C\c6ccccc6F)C5=O)CC4)CC[C@]12C)OO3`, for which the results for the IC50 in the test on A549, in the test with HepG2 and in the test with MCF7 were 6.95 µM, 10.8 µM and 15.8 µM, respectively.

As to `CC(C)[C@@H](C)/C=C/[C@@H](C)[C@H]1CC[C@@H]2[C@]1(C)CC[C@H]1[C@]23C=C[C@]2(C[C@@H](OC(=O)N4CCN(C(=O)CN5C(=O)CSC5=O)CC4)CC[C@]12C)OO3`, the figures for the IC50 with A549, with HepG2 and in the test with MCF7 were 4.82 µM, 8.97 µM and 6.37 µM, respectively.

Turning to `CC(C)[C@@H](C)/C=C/[C@@H](C)[C@H]1CC[C@@H]2[C@]1(C)CC[C@H]1[C@]23C=C[C@]2(C[C@@H](OC(=O)N4CCN(C(=O)CN5C(=O)S/C(=C\c6ccc(Cl)cc6)C5=O)CC4)CC[C@]12C)OO3`, the IC50 in the test on A549 turned out to be 5.94 µM; in the test with HepG2, 9.58 µM; with MCF7 it was 8.94 µM.

With `CC(C)[C@@H](C)/C=C/[C@@H](C)[C@H]1CC[C@H]2C3=CC=C4C[C@@H](OC(=O)NCCNC(=O)CN5C(=O)S/C(=C\c6cccc7ccccc67)C5=O)CC[C@]4(C)[C@H]3CC[C@]12C`, the IC50 with A549, in the test on HepG2 and with MCF7 was over 80 µM each time.

With `CC(C)[C@@H](C)/C=C/[C@@H](C)[C@H]1CC[C@@H]2[C@]1(C)CC[C@H]1[C@]23C=C[C@]2(C[C@@H](OC(=O)N4CCN(C(=O)CN5C(=O)S/C(=C\C6CC6)C5=O)CC4)CC[C@]12C)OO3`, the IC50 was determined as 6.06 µM in the test on A549, 8.97 µM with HepG2 and 7.17 µM in the test with MCF7.

As for `CC(C)[C@@H](C)/C=C/[C@@H](C)[C@H]1CC[C@@H]2[C@]1(C)CC[C@H]1[C@]23C=C[C@]2(C[C@@H](OC(=O)CN4C(=O)S/C(=C/c5ccco5)C4=O)CC[C@]12C)OO3`, the IC50 in the test on A549 is 15 µM; in the test on HepG2, 20.2 µM; in the test on MCF7 it was 21 µM.

In the case of `COc1ccc(/C=C2\SC(=O)N(CC(=O)N3CCN(C(=O)O[C@H]4CC[C@]5(C)[C@H]6CC[C@]7(C)[C@@H]([C@H](C)/C=C/[C@H](C)C(C)C)CC[C@H]7[C@@]67C=C[C@]5(C4)OO7)CC3)C2=O)cc1`, the IC50 in the test on A549 worked out at 6.24 µM; in the test with HepG2, 8.85 µM; with MCF7 it was 13.7 µM.

As for `CC(C)[C@@H](C)/C=C/[C@@H](C)[C@H]1CC[C@@H]2[C@]1(C)CC[C@H]1[C@]23C=C[C@]2(C[C@@H](OC(=O)CN4C(=O)S/C(=C/c5ccccc5)C4=O)CC[C@]12C)OO3`, the IC50 in the test on A549 stood at 13.7 µM; in the test with HepG2, 17.6 µM; with MCF7, 12.5 µM.

In the case of `COc1ccccc1/C=C1\SC(=O)N(CC(=O)N2CCN(C(=O)O[C@H]3CC[C@]4(C)[C@H]5CC[C@]6(C)[C@@H]([C@H](C)/C=C/[C@H](C)C(C)C)CC[C@H]6[C@@]56C=C[C@]4(C3)OO6)CC2)C1=O`, the figures for the IC50 in the test on A549, in the test on HepG2 and in the test on MCF7 were 10.2 µM, 22.6 µM and 15.4 µM, respectively.

With `COc1cccc(/C=C2\SC(=O)N(CC(=O)N3CCN(C(=O)O[C@H]4CC[C@]5(C)[C@H]6CC[C@]7(C)[C@@H]([C@H](C)/C=C/[C@H](C)C(C)C)CC[C@H]7[C@@]67C=C[C@]5(C4)OO7)CC3)C2=O)c1`, the IC50 in the test with A549 was 10.1 µM; with HepG2, 12.7 µM; in the test on MCF7, 14.3 µM.

On to `COc1ccc(/C=C2/SC(=O)N(CC(=O)O[C@H]3CC[C@]4(C)[C@H]5CC[C@]6(C)[C@@H]([C@H](C)/C=C/[C@H](C)C(C)C)CC[C@H]6[C@@]56C=C[C@]4(C3)OO6)C2=O)cc1`, for which the IC50 in the test on A549 was found to be 9.91 µM; with HepG2 it was 10.7 µM; in the test on MCF7, 18.4 µM.

`CC(C)[C@@H](C)/C=C/[C@@H](C)[C@H]1CC[C@@H]2[C@]1(C)CC[C@H]1[C@]23C=C[C@]2(C[C@@H](OC(=O)CN4C(=O)S/C(=C/c5ccc(Cl)cc5)C4=O)CC[C@]12C)OO3`: the values for the IC50 in the test with A549, in the test with HepG2 and with MCF7 were 9.18 µM, 13.5 µM and 9.92 µM, respectively.

For `CC(C)[C@@H](C)/C=C/[C@@H](C)[C@H]1CC[C@H]2C3=CC=C4C[C@@H](OC(=O)NCCNC(=O)CN5C(=O)S/C(=C\C6CC6)C5=O)CC[C@]4(C)[C@H]3CC[C@]12C`, the IC50 with A549, in the test on HepG2 and in the test on MCF7 was over 80 µM in each case.

Values taken from ChEMBL document CHEMBL6078657, “Thiazolidinedione-based structure modification of ergosterol peroxide provides thiazolidinedione-conjugated derivatives as potent agents against breast cancer cells through a PI3K/AKT/mTOR pathway” (Bioorg Med Chem, 2025).
